Test results taken from PMC5917077, “CD22-Binding Synthetic Sialosides Regulate B Lymphocyte Proliferation Through CD22 Ligand-Dependent and Independent Pathways, and Enhance Antibody Production in Mice” (Frontiers in Immunology, 2018).

How the values were obtained:
[1] = target: T1, CD22 (Siglec-2) (Mus musculus, UniProt P35329); assay: competition ELISA, mouse CD22-Fc binding to immobilized biotinylated synthetic CD22 ligand
T1 construct: amino-terminal domains (domains 1–3) fused to Fc region of human IgG1 (CD22-Fc)
T1 sequence (P35329 22-347 limits assumed): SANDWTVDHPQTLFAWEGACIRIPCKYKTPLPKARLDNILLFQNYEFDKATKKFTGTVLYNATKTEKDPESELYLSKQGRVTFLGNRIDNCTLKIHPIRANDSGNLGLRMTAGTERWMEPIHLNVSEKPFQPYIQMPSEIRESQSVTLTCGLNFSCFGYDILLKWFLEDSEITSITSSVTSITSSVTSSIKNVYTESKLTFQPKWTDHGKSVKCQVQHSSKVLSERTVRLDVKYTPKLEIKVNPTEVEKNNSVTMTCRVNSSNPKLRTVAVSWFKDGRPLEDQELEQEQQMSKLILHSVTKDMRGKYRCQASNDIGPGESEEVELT

[2] = target: T2, CD22 (Siglec-2) (Homo sapiens, UniProt P20273); assay: competition ELISA, human CD22-Fc binding to immobilized α1-acid glycoprotein
T2 construct: amino-terminal domains (domains 1–3) fused to Fc region of human IgG1 (CD22-Fc)
T2 sequence (P20273 20-326 limits assumed): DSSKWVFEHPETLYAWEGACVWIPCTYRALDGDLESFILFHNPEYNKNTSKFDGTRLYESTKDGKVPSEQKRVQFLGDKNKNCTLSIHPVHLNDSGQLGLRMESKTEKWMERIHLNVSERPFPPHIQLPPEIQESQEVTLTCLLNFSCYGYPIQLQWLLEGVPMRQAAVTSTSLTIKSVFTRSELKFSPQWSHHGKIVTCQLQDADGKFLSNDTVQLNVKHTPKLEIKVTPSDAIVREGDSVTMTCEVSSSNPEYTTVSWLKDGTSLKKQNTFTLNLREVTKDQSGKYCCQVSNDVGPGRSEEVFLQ

| IC50 [1] | IC50 [2] | Structure (SMILES) |
| --- | --- | --- |
| ~100 nM | ~100 nM | O=C(Cc1ccc(-c2ccc(O)cc2)cc1)NC[C@@H](O)[C@@H](O)[C@@H]1O[C@@](OCc2ccccc2)(C(=O)O)C[C@H](O)[C@H]1NC(=O)CO [GSC718] |
| ~100 nM | ~100 nM | O=C(Cc1ccc(-c2ccc(O)cc2)cc1)NC[C@@H](O)[C@@H](O)[C@@H]1OC(OCc2ccc(F)cc2)(C(=O)O)C[C@H](O)[C@H]1NC(=O)CO (stereo partly shown) [GSC839] |
